In patent publication US6239171A, “Tocotrienols and tocotrienol-like compounds and methods for their use” (Lipogenics, Inc., priority 1998, dated 2001):

What was measured:
[1] = test system: human peripheral blood neutrophils; experiment: Release of superoxide in human peripheral blood neutrophils; format: cell-based; details: for 5×10^5 cells/hour, phorbol myrstate acetate
Text: We determined the effect of a known tocotrienol, γ-T3, on the release of superoxide in human peripheral blood neutrophils. Neutrophils are an extracellular source of oxygen free radicals. Once activated, these neutrophils can attach to endothelial tissue where they release a potent toxin, superoxide. Superoxide amplifies the inflammatory response and impairs local circulation of the blood.
The neutrophils we tested were isolated by density centrifugation on Ficoll-Hypaque gradients using conventional methods (see E. Serbinova et al., "Free Radical Recycling and Intramembrane Mobility in the Antioxidant Properties of α-Tocopherol and α-Tocotrienol", Free Rad. Bio. and Med., 10, pp. 263-75 (1991)). The neutrophils were then placed in a 96-well plate. γ-T3 and phorbol myrstate acetate were added to the wells at the same time. The secretion of superoxide anion was measured as the superoxide dismutase-inhibitable reduction of ferricytochrome C.

[2] = test system: chickens; experiment: Plasma thromboxane B2 and platelet factor 4 in chickens fed supplemented diets; format: in vivo, chicken; details: control diet + 50 ppm, 4 weeks
Description: We next measured the effects of TRF and its components on serum levels of apolipoprotein (a)1, apolipoprotein B, triglycerides and glucose and the plasma levels of thromboxane B2 and platelet factor 4.

[3] = test system: cholesterol 7α-hydroxylase; experiment: Hepatic cholesterol 7α-hydroxylase activity in hypercholesterolemic swine; format: in vivo; details: control diet + 50 ppm
Text: (§1) All assays conducted on chicken or swine serum were done following the protocols described in A. A. Qureshi et al., "Lowering Of Serum Cholesterol In Hypercholesterolemic Humans By Tocotrienols" (Palmvitee), Am. J. Clin. Nutr., 53, pp. 1021S-26S (1991). All enzymatic assays were done following the protocols described in A. A. Qureshi et al., "Effects of Cereals and Culture Filtrate of Trichoderma viride on Lipid Metabolism of Swine", Lipids, 17, pp. 924 (1982). Plasma insulin, glucagon and TNF levels were measured using radioinnumoassay kits from Ventrex Laboratories, Inc. (Portland, Me.), ICN Biomedicals, Inc. (Costa Mesa, Calif.) and Genzyme Corp. (Cambridge, Mass.), respectively.
We next measured the effects of various tocotrienols from rice bran on HMG-CoA reductase and cholesterol 7α-hydroxylase in hypercholesterolemic swine. Since pigs are very similar to humans in their cholesterol metabolism, they provide a useful model from which to study hypercholesterolemia and related diseases. […] The serum cholesterol concentration in these swine is typically above 300-500 mg/dl, as compared to 120-160 mg/dl in normal adult swine. As a result, the pigs develop complicated atherosclerotic plaques that closely resemble advanced atherosclerotic lesions found in humans.
(§2) Each group of three 5-month old swine was administered either a control diet or a control diet supplemented with 50 ppm of TRF or 50 ppm of an individual tocotrienol. The samples were prepared as described in Example 11. After a 12 hour fast, serum and plasma samples were taken a 0 hrs, 21 days and 42 days from the start of the feeding period. After taking serum and plasma samples from the pigs at the end of the 42 day period, all of the swine were fasted for a total of 40 hours, followed by a 48 hour refeeding period. One swine from each group was sacrificed at that time and the liver, intestine, lung, heart, loin muscle, adipose tissue and ham muscle were removed.

[4] = test system: hypercholesterolemic swine; experiment: Plasma thromboxane B2 and platelet factor 4 in hypercholesterolemic swine; format: in vivo; design: Platelet Factor 4: unit not given here; details: control diet + 50 ppm, 42 days
Text: as §1, §2
This example was conducted to measure the serum levels of apolipoprotein (a)1, apolipoprotein B, triglycerides, glucose, insulin and glucagon and the plasma levels of thromboxane B2 and platelet factor 4 in the swine described in Example 15.

[5] = target: T1, Fatty Acid Synthase (Gallus gallus, UniProt P12276); experiment: Fatty acid synthase activity in isolated chicken hepatocytes; format: cell-based
T1 construct: hepatocytes isolated from livers of 8-week old female chickens; endogenous in cells; host or cells: primary chicken hepatocytes
Description: (§3) This study measured the effects of three tocotrienols isolated from rice bran on cholesterol-related enzyme activity in hepatocytes isolated from livers of 8-week old female chickens. The chickens were fed the chick mash diet for 8 weeks. They were then fasted for 40 hours and finally refed for 48 hours before sacrifice. The hepatocytes were then prepared following standard methods.
(§4) Each compound was isolated from TRF using the following protocol: A bond Elute amine column was equilibrated with 2 ml hexane. 10 mg of TRF (dissolved in 0.5 ml hexane) was bound to the amine column. The column was washed with 1 ml of hexane, then with 1 ml of 3% isopropanol in hexane. P-21 and P-25 were eluted off the column with 5% isopropanol in hexane. Then using 10% isopropanol in hexane, the impurity P-20 was eluted. α-tocotrienol was also tested.

[6] = test system: hypercholesterolemic swine; experiment: Body weight gain and feed conversion efficiency in hypercholesterolemic swine; format: in vivo; details: control diet + 50 ppm
Description: as §2

[7] = test system: cholesterol 7α-hydroxylase; experiment: Cholesterol 7α-hydroxylase activity in isolated chicken hepatocytes; format: cell-based
Description: as §3, §4

T1 sequence (P12276 2-2512 limits assumed): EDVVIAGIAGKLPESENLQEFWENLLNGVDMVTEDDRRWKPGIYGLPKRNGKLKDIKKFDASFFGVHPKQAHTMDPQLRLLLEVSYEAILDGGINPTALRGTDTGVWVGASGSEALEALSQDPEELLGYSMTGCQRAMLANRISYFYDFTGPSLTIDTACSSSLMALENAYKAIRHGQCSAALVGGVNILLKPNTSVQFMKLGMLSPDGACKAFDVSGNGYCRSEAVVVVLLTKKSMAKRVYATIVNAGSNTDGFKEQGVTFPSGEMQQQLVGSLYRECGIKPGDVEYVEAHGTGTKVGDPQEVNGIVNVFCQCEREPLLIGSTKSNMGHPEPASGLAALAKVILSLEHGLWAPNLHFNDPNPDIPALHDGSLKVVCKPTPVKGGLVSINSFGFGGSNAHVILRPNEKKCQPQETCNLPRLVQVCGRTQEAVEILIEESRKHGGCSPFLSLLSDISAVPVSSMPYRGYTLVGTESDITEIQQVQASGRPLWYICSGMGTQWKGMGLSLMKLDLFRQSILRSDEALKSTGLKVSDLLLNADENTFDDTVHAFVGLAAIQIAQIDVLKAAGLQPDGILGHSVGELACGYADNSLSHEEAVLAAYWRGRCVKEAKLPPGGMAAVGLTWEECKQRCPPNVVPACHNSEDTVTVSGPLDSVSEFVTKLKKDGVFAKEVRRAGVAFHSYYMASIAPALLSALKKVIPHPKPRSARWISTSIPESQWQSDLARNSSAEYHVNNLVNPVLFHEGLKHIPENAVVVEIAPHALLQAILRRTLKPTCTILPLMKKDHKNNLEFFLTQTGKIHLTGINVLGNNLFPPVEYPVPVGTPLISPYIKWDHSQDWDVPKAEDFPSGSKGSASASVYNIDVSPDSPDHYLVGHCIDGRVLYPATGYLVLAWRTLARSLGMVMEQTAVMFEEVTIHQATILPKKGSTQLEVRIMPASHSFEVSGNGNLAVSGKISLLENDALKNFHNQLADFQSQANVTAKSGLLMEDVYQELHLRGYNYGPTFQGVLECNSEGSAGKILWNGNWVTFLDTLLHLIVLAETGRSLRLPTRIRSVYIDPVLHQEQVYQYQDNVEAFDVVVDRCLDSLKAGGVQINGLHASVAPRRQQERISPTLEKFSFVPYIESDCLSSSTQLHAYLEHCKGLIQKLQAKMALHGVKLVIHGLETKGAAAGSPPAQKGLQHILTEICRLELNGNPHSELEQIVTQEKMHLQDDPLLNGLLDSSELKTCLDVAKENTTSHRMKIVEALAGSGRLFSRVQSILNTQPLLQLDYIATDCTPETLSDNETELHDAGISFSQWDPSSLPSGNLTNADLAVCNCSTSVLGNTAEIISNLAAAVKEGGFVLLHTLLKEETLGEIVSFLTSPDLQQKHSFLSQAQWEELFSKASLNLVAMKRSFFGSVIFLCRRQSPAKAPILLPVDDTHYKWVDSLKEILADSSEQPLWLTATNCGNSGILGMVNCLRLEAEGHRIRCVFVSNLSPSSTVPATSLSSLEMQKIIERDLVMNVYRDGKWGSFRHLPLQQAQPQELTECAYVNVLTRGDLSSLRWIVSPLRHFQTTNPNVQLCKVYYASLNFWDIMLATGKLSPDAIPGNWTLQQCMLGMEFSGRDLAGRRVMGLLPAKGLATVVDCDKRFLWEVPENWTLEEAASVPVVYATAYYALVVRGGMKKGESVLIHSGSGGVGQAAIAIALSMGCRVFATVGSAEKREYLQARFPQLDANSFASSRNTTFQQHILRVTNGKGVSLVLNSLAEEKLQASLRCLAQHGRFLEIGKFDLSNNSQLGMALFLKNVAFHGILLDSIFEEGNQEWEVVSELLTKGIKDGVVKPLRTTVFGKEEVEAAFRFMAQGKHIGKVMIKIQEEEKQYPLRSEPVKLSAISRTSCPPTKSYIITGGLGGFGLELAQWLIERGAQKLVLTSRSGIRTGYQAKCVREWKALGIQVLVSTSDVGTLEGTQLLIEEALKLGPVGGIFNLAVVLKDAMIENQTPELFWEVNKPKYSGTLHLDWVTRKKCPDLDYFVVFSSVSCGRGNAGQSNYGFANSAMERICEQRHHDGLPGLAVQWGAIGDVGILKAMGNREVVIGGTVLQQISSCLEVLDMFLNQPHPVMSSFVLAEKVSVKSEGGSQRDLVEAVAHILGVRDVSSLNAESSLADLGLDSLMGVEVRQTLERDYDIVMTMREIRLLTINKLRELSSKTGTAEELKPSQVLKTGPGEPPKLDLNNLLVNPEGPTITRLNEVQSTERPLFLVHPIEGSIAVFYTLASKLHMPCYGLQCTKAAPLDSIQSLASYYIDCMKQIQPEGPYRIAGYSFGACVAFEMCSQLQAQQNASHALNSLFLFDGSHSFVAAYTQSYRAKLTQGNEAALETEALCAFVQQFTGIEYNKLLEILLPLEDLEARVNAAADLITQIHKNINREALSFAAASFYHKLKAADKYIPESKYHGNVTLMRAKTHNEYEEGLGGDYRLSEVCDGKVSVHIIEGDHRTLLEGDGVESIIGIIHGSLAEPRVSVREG

Row | Compound | Platelet Factor 4 [2] [ng/mL] | Platelet Factor 4, percentage of control [2] [%] | Thromboxane B2 [2] [pg/mL] | Thromboxane B2, percentage of control [2] [%] | CHOLESTEROL 7α-HYDROXYLASE, percentage of baseline value ([3]; 21 days) [%] | Cholesterol 7α-hydroxylase ([3]; 21 days) | CHOLESTEROL 7α-HYDROXYLASE, Percentage of Control Activity ([3]; 42 days) [%] | CHOLESTEROL 7α-HYDROXYLASE, percentage of baseline value ([3]; 42 days) [%] | Cholesterol 7α-hydroxylase ([3]; 42 days) | Platelet Factor 4, percentage of control [4] [%] | Thromboxane B2 [4] [pg/100 ml] | Thromboxane B2, percentage of control [4] [%] | Fatty Acid Synthase ([5]; 10.0 μg/mL) [nmol/min/mg] | Fatty Acid Synthase, percentage of 0.0 μg/mL ([5]; 10.0 μg/mL) [%] | Fatty Acid Synthase ([5]; 20.0 μg/mL) [nmol/min/mg] | Fatty Acid Synthase, percentage of 0.0 μg/mL ([5]; 20.0 μg/mL) [%] | Fatty Acid Synthase ([5]; 40.0 μg/mL) [nmol/min/mg] | Fatty Acid Synthase, percentage of 0.0 μg/mL ([5]; 40.0 μg/mL) [%] | Fatty Acid Synthase ([5]; 80.0 μg/mL) [nmol/min/mg] | Fatty Acid Synthase, percentage of 0.0 μg/mL ([5]; 80.0 μg/mL) [%] | further results
1 | CC(C)=CCC/C(C)=C/CC/C(C)=C/CCC1(C)CCc2cc(O)c(C)c(C)c2O1 (stereo not shown) [γ-T3, γ-tocotrienol, reference compound] | 8.36 | 63.87 | 19.22 | 74.38 | 100.89 | 4.53 pg/min/mg of microsomes | 98.18 | 102.00 | 4.58 pg/min/mg of microsomes | 85.28 | 62.54 | 92.25 | – | – | – | – | – | – | – | – | amount of superoxide released (control 19.7 nmole) ([1]; concentration 10^-5): 0 nmol; amount of superoxide released (control 19.7 nmole) ([1]; concentration 10^-6): 8.0 nmol
2 | CC(C)=CCC/C(C)=C/CC/C(C)=C/CCC1(C)CCc2cc(O)ccc2O1 (stereo not shown) [P21, 3,4-dihydro-2-methyl-2-(4,8,12-trimethyltrideca-3' (E),7'(E),11'-trienyl)-2H-1-benzopyran-6-ol] | 7.76 | 59.28 | 16.74 | 64.78 | 99.34 | 4.50 pg/min/mg of microsomes | 98.38 | 102.21 | 4.63 pg/min/mg of microsomes | 82.59 | 60.48 | 87.66 | 14.3 | 83.1 | 12.7 | 73.8 | 11.8 | 68.6 | 10.2 | 59.3 | increase of feed conversion efficiency [6]: 7%; Cholesterol 7α-hydroxylase ([7]; 10.0 μg/mL): 2.41 pmol/min/mg; Cholesterol 7α-hydroxylase, percentage of 0.0 μg/mL ([7]; 10.0 μg/mL): 104.3%; Cholesterol 7α-hydroxylase ([7]; 20.0 μg/mL): 3.40 pmol/min/mg; Cholesterol 7α-hydroxylase, percentage of 0.0 μg/mL ([7]; 20.0 μg/mL): 103.9%; Cholesterol 7α-hydroxylase ([7]; 40.0 μg/mL): 2.39 pmol/min/mg; Cholesterol 7α-hydroxylase, percentage of 0.0 μg/mL ([7]; 40.0 μg/mL): 103.5%; Cholesterol 7α-hydroxylase ([7]; 80.0 μg/mL): 1.37 pmol/min/mg; Cholesterol 7α-hydroxylase, percentage of 0.0 μg/mL ([7]; 80.0 μg/mL): 102.6%
3 | CC(C)=CCC/C(C)=C/CC/C(C)=C/CCC1CCc2cc(O)ccc2O1 (stereo not shown) [P25, 3,4-dihydro-2-(4,8,12-trimethyltrideca-3'(E),7'(E),11'-trienyl)-2H-1-benzopyran-6-ol] | 7.27 | 55.54 | 16.42 | 63.54 | 101.09 | 4.62 pg/min/mg of microsomes | 98.58 | 102.41 | 4.68 pg/min/mg of microsomes | 79.36 | 57.03 | 83.02 | 16.2 | 94.2 | 14.3 | 83.1 | 12.7 | 73.8 | 12.1 | 70.3 | increase of feed conversion efficiency [6]: 10%; Platelet Factor 4 [4]: 19.15; Cholesterol 7α-hydroxylase ([7]; 10.0 μg/mL): 2.33 pmol/min/mg; Cholesterol 7α-hydroxylase, percentage of 0.0 μg/mL ([7]; 10.0 μg/mL): 100.9%; Cholesterol 7α-hydroxylase ([7]; 20.0 μg/mL): 2.37 pmol/min/mg; Cholesterol 7α-hydroxylase, percentage of 0.0 μg/mL ([7]; 20.0 μg/mL): 102.61%; Cholesterol 7α-hydroxylase ([7]; 40.0 μg/mL): 2.44 pmol/min/mg; Cholesterol 7α-hydroxylase, percentage of 0.0 μg/mL ([7]; 40.0 μg/mL): 105.6%; Cholesterol 7α-hydroxylase ([7]; 80.0 μg/mL): 2.37 pmol/min/mg; Cholesterol 7α-hydroxylase, percentage of 0.0 μg/mL ([7]; 80.0 μg/mL): 102.6%
